The values that follow come from ChEMBL document CHEMBL4376871, “Synthesis and anti-cancer activity studies of dammarane-type triterpenoid derivatives” (Eur J Med Chem, 2020).

What is called pIC50 is the IC50 on a negative log10 scale, so that one unit is a factor of ten.

SMILES strings stand for the structures. pIC50: −log10 of the molar value.

For one test, the system named is PC-3. As to the kind of experiment: Antiproliferative activity against human PC3 cells incubated for 48 hrs and measured after 4 hrs by MTT assay. Type of test: functional, cell-based. On the technique in general: Tetrazolium assays rely on reduction of a dye to a coloured formazan, in cell work by metabolically active cells.
For a further test, the system named is A549. As to the kind of experiment: Antiproliferative activity against human A549 cells incubated for 48 hrs and measured after 4 hrs by MTT assay. Type of test: functional, cell-based.
Test [1] in a line: Cytotoxicity against human IOSE-144 cells incubated for 48 hrs and measured after 4 hrs by MTT assay. Type of test: cell-based.
The subject of another test is MGC-803. As to the kind of experiment: Antiproliferative activity against human MGC803 cells incubated for 48 hrs and measured after 4 hrs by MTT assay. Type of test: functional, cell-based.
The next test concerns SGC-7901. Description: Antiproliferative activity against human SGC7901 cells incubated for 48 hrs and measured after 4 hrs by MTT assay. Type of test: functional, cell-based.
For a further test, the system named is MCF7. Description: Antiproliferative activity against human MCF7 cells incubated for 48 hrs and measured after 4 hrs by MTT assay. Type of test: functional, cell-based.

For the molecule `CC(C)(O)CCC[C@@](C)(O)[C@H]1CC[C@]2(C)[C@@H]1[C@H](O)C[C@@H]1[C@@]3(C)C/C(=C\c4ccc(Br)cc4)[C@H](O)C(C)(C)[C@@H]3CC[C@]12C`, the pIC50 in the test with PC-3 is 4.78; in the test on A549 it was 4.41; in test [1], less than 4.00; with MGC-803 it was 4.58; in the test on SGC-7901, less than 4.00; in the test on MCF7, less than 4.00.

With `CC(C)(O)CCC[C@@](C)(O)[C@H]1CC[C@]2(C)[C@@H]1[C@H](O)C[C@@H]1[C@@]3(C)C/C(=C\c4cccc(Br)c4)C(=O)C(C)(C)[C@@H]3CC[C@]12C`, the pIC50 in the test with PC-3 was 4.85; with A549, 4.46; in test [1] it was less than 4.00; with MGC-803, 4.87; with SGC-7901 it was 4.69; in the test with MCF7, 4.91.

In the case of `CC(C)(O)CCC[C@@](C)(O)[C@H]1CC[C@]2(C)[C@@H]1[C@H](O)C[C@@H]1[C@@]3(C)C/C(=C\c4ccc(C(F)(F)F)cc4)C(=O)C(C)(C)[C@@H]3CC[C@]12C`, the pIC50 in the test with PC-3 was 4.43; with A549 it was 4.31; in test [1], less than 4.00; in the test on MGC-803, 4.58; in the test on SGC-7901, 4.54; in the test with MCF7 it was 4.81.

`CC(C)(O)CCC[C@@](C)(O)[C@H]1CC[C@]2(C)[C@@H]1[C@H](O)C[C@@H]1[C@@]3(C)C/C(=C\c4ccc(Br)cc4)C(=O)C(C)(C)[C@@H]3CC[C@]12C`: the pIC50 was 4.78 in the test with PC-3; 4.64 in the test on A549; less than 4.00 in test [1]; 4.86 in the test on MGC-803; 4.67 in the test on SGC-7901; 5.07 with MCF7.

Turning to `CC(C)(O)CCC[C@@](C)(O)[C@H]1CC[C@]2(C)[C@@H]1[C@H](O)C[C@@H]1[C@@]3(C)C/C(=C\c4cccc([N+](=O)[O-])c4)[C@H](O)C(C)(C)[C@@H]3CC[C@]12C`, the pIC50 with PC-3 is 4.12; in the test with A549, 4.35; in test [1], less than 4.00; with MGC-803, less than 4.00; in the test with SGC-7901 it was less than 4.00; in the test on MCF7, less than 4.00.

For the molecule `CC(C)(O)CCC[C@@](C)(O)[C@H]1CC[C@]2(C)[C@@H]1[C@H](O)C[C@@H]1[C@@]3(C)C/C(=C\c4ccc([N+](=O)[O-])cc4)C(=O)C(C)(C)[C@@H]3CC[C@]12C`, the negative-log IC50 (pIC50) in the test on PC-3 was 4.51; in the test on A549, 4.71; in test [1], less than 4.00; in the test with MGC-803 it was 4.65; in the test on SGC-7901, 4.55; in the test on MCF7 it was 4.65.

As for `CC(C)(O)CCC[C@@](C)(O)[C@H]1CC[C@]2(C)[C@@H]1[C@H](O)C[C@@H]1[C@@]3(C)CC[C@H](N)C(C)(C)[C@@H]3CC[C@]12C`, the pIC50 in the test on PC-3 is 4.47; with A549, 5.11; in test [1], less than 4.00; in the test with MGC-803 it was 4.86; with SGC-7901 it was 4.27; in the test on MCF7 it was 4.88.

With `CC(C)(O)CCC[C@@](C)(O)[C@H]1CC[C@]2(C)[C@@H]1[C@H](O)C[C@@H]1[C@@]3(C)CC[C@H](OC(=O)C4CCCN(C(=O)OC(C)(C)C)C4)C(C)(C)[C@@H]3CC[C@]12C` (some centres not stated), the pIC50 in the test on PC-3 is 4.63; in the test with A549, 4.65; in test [1] it was less than 4.00; with MGC-803, 4.65; in the test with SGC-7901, 4.65; in the test on MCF7, 4.57.

`CC(C)(O)CCC[C@@](C)(O)[C@H]1CC[C@]2(C)[C@@H]1[C@H](O)C[C@@H]1[C@@]3(C)C/C(=C\c4cccc([N+](=O)[O-])c4)C(=O)C(C)(C)[C@@H]3CC[C@]12C`: the pIC50 in the test on PC-3 was 4.85; in the test on A549, 4.78; in test [1], less than 4.00; in the test on MGC-803, 4.95; in the test on SGC-7901, 4.75; in the test on MCF7, 4.90.

Turning to `CC(C)(O)CCC[C@@](C)(O)[C@H]1CC[C@]2(C)[C@@H]1[C@H](O)C[C@@H]1[C@@]3(C)CC[C@H](OC(=O)C4CCN(C(=O)OC(C)(C)C)CC4)C(C)(C)[C@@H]3CC[C@]12C`, the pIC50 is 4.59 in the test with PC-3; 4.97 in the test with A549; less than 4.00 in test [1]; 4.65 with MGC-803; 4.74 in the test on SGC-7901; 4.96 in the test on MCF7.

With `CC(C)(O)CCC[C@@](C)(O)[C@H]1CC[C@]2(C)[C@@H]1[C@H](O)C[C@@H]1[C@@]3(C)CC[C@H](OC(=O)C4CCCNC4)C(C)(C)[C@@H]3CC[C@]12C` (some centres not stated), the pIC50 was 4.88 with PC-3; 5.26 in the test with A549; less than 4.00 in test [1]; 4.90 in the test with MGC-803; 4.92 in the test with SGC-7901; 4.86 with MCF7.

`CC(C)(O)CCC[C@@](C)(O)[C@H]1CC[C@]2(C)[C@@H]1[C@H](O)C[C@@H]1[C@@]3(C)C/C(=C\c4ccc(C(F)(F)F)cc4)[C@H](O)C(C)(C)[C@@H]3CC[C@]12C`: the pIC50 in the test with PC-3 is less than 4.00; in the test with A549, 4.34; in test [1], less than 4.00; in the test with MGC-803, less than 4.00; with SGC-7901, less than 4.00; in the test with MCF7, less than 4.00.

In the case of `CC(C)(O)CCC[C@@](C)(O)[C@H]1CC[C@]2(C)[C@@H]1[C@H](O)C[C@@H]1[C@@]3(C)C/C(=C\c4cccc(F)c4)C(=O)C(C)(C)[C@@H]3CC[C@]12C`, the pIC50 with PC-3 is 4.31; in the test on A549, 4.26; in test [1], less than 4.00; with MGC-803, 4.88; with SGC-7901 it was 4.50; with MCF7 it was 4.83.

Take `CC(C)(O)CCC[C@@](C)(O)[C@H]1CC[C@]2(C)[C@@H]1[C@H](O)C[C@@H]1[C@@]3(C)CC[C@H](NC(=O)C4CCCN(C(=O)OC(C)(C)C)C4)C(C)(C)[C@@H]3CC[C@]12C` (some centres not stated): the pIC50 is 4.64 in the test with PC-3; 4.63 in the test with A549; less than 4.00 in test [1]; 4.77 in the test with MGC-803; 4.74 in the test on SGC-7901; 4.67 in the test with MCF7.

Consider `CC(C)(O)CCC[C@@](C)(O)[C@H]1CC[C@]2(C)[C@@H]1[C@H](O)C[C@@H]1[C@@]3(C)C/C(=C\c4cccc(F)c4)[C@H](O)C(C)(C)[C@@H]3CC[C@]12C`, for which the pIC50 in the test on PC-3 is less than 4.00; in the test with A549, less than 4.00; in test [1] it was less than 4.00; in the test on MGC-803, 4.25; with SGC-7901, less than 4.00; in the test on MCF7, less than 4.00.

For `CC(C)(O)CCC[C@@](C)(O)[C@H]1CC[C@]2(C)[C@@H]1[C@H](O)C[C@@H]1[C@@]3(C)CC[C@H](NC(=O)C4CCN(C(=O)OC(C)(C)C)CC4)C(C)(C)[C@@H]3CC[C@]12C`, the pIC50 was 4.75 in the test with PC-3; 4.93 in the test with A549; less than 4.00 in test [1]; 4.94 in the test with MGC-803; 4.72 in the test on SGC-7901; 4.05 in the test on MCF7.

On to `CC(C)(O)CCC[C@@](C)(O)[C@H]1CC[C@]2(C)[C@@H]1[C@H](O)C[C@@H]1[C@@]3(C)C/C(=C\c4ccc(F)cc4F)[C@H](O)C(C)(C)[C@@H]3CC[C@]12C`, for which the pIC50 in the test on PC-3 was 4.61; with A549 it was 4.67; in test [1], less than 4.00; in the test on MGC-803 it was 4.90; with SGC-7901 it was 4.52; in the test with MCF7 it was 4.88.
